Experimental data reported in patent publication US20060239926A1, “Specific high-relaxivity compounds” (GUERBET, priority 2003, published 2006).
*: point of attachment. Cbz = O=C(OCc1ccccc1)*; NHOH = ON*

Assays:
[1] = test system: FBP; conditions: cited from earlier work; for affinity for FBP relative to folic acid: order: pemetrexed>CB3717>IAHQ>2-NH2-ZD1694
[2] = target: T1, human MMP-1 (Homo sapiens, UniProt P03956); assay: In vitro MMP-inhibiting activity (fluorimetry), MMP-1; assay type: biochemical; conditions: for CONCENTRATION OF PEPTIDE (with significant inhibitory effect): tested at 10^−5, 10^−7 and 10^−9 M with respect to peptides
T1 sequence (P03956 100-469): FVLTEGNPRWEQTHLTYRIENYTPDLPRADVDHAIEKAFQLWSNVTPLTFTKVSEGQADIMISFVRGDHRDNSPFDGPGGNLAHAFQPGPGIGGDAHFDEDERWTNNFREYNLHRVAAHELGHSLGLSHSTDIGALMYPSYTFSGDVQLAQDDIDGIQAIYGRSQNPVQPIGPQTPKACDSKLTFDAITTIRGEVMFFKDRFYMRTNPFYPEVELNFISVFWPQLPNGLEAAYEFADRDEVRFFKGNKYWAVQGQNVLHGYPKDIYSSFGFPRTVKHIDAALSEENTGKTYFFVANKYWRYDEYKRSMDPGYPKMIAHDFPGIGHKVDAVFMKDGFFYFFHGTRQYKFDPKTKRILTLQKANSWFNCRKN
Description: The inventors assayed the in vitro activity of the P947 and P967 gadolinium-chelate contrast products functionalized with matrix metalloproteases inhibitors (MMPs), on human MMP-1 and MMP-3. As regards the affinity of the biovector component, on the receptor, the controls were two peptides:
More precisely, the in vitro MMP-inhibiting activity was evaluated in the following way: • 1. Incubation of the test product in the presence of the MMP enzyme, at 37° C., for a defined period of time, and then measurement of the fluorescence of the medium (t=0). • 2. Induction of the enzyme reaction by addition of the substrate to (which becomes fluorescent when it is cleaved by the enzyme), and then incubation at 37° C. for 40 min. A second measurement of fluorescence is then taken (t=40). • 3. The activity of the MMP enzyme is determined by subtraction of the signal measured by fluorimetry: (t=40)-(t=0). • 4. The results are expressed as percentage inhibition of the activity of the control enzyme. • 5. The standard inhibitory product is TIMP-1.
The products were tested in duplicate, at 10^−5, 10^−7 and 10^−9 M with respect to peptides. Those which contain no peptides were treated in a manner similar to the corresponding functionalized contrast products.

[3] = target: T1, human MMP-1; conditions: value of the peptide component, not of the Gd conjugate, read-out: IC50 OF THE PEPTIDE (LITERATURE); cited from earlier work
[4] = target: αvβ5 (Homo sapiens, UniProt P06756+P18084); conditions: cited from earlier work
[5] = target: α5β1 (Homo sapiens, UniProt P05556+P08648); conditions: cited from earlier work
[6] = Molar relaxivity (r1, r2) measurement; assay type: physicochemical; conditions: 60 MHz; in water; 2 Gd per mol of product; uncertainty +/−5%
From the text: Since BIO-FOLATE.I has 2 Gd per mol of product, the molar relaxivity values are summarized in this table (uncertainty +/−5%).

[7] = test system: KB tumours; assay: Biodistribution study on nude mice bearing KB tumours
From the text: c. Biodistribution study on nude mice bearing KB tumours: this biodistribution study comprised competition between P860 and free-folic acid. A group of animals received normal food and a co-injection of folic acid with the product tested and another was given a folate-depleted diet through a single injection of the product tested.
Conditions for Biodistribution Study on Nude Mice Part 1: • Induction of subcutaneous tumours in nude female mice and […] of human KB cells. • Separation of the animals into 2 groups receiving a diet with or without folate (10 days). • The group with folate receives an additional injection of folic acid (25 μmol/kg IV) 5 minutes before the injections of contrast product (CP). • IV injection of CP then removal of organ samples (muscle, tumour, liver, kidneys) and plasma samples. Part 2: Assays by ICP-AES • Gd assay (P860, BIO-FOLATE.I, Dotarem): liver, kidney. Part 3: Bioanalysis: Assay by ICP-MS • Gd assay (P860, BIO-FOLATE.I, Dotarem): tumour, muscle, plasma
Supplementing with Folate • 5.5 mM folic acid diluted in PBS and then injected at a dose of 25 μmol/kg (4.54 ml/kg).
Folic acid and CP: IV administration (caudal vein).
The folic acid was injected 5 minutes before the injection of CP.
Results: Tumour Distribution of the PC—Gd

[8] = test system: tumours; assay: Study of MRI imaging between 30 minutes and 24 hours with Gd assays by ICP-MS; assay type: in vivo
Description: (§1) The molar BIO-FOLATE.I relaxivity in water is very good, in particular at 60 MHz: r1=53 mM^−1·s^−1. It is recalled that the relaxivity obtained with specific products of the prior art of the type such as dendrimer associated with folates is r1=9.32 mM^−1s^−1 per Gd (Investigative Radiology, January 2000, vol 35, p 56). • Study of MRI imaging between 30 minutes and 24 hours the contrast at the level of the tumour is very clear, in particular 1 to 2 hours after injection. In addition, Gd assays by ICP-MS; were carried out on the reference organs at the end of the assays using the imager. […] The tumour/muscle ratio is of the order of 4 to 10 times that observed with previously used contrast products. Experimental Conditions for the BIACORE 3000 Studies on P860 and BIO-FOLATE.I (Study of Affinity Between P860, BIO-FOLATE.I, and Folate Binding Protein by Means of BIAcore 3000).

[9] = target: T2, Folate Binding Protein (FBP) (Bos taurus, UniProt P02702); assay: Study of affinity with Folate Binding Protein by means of BIAcore 3000
T2 construct: purchased Sigma F-0504
Description: as §1
PGM buffer: 100 mM KH2PO4, pH 7, 10% glycerol and 4 mM β-mercaptoethanol
The FBP was immobilized at 1 mg/ml in PGM buffer according to the protocols recommended by BIAcore for coupling amines. Next, the remaining active carboxylated groups are saturated with 1M ethanolamine, pH=8.
The folate binding was followed at four different concentrations (125, 250, 500 and 1000 μM). The association and the dissociation were studied with a flow rate at 30 μl/min. […]

[10] = test system: KB cells; assay: In vitro study of binding/internalization in KB cells; assay type: cell-based, Human; conditions: 37° C., with or without excess free folic acid; ICP-MS assays

Chain of αvβ5 (P06756 31-889 limits assumed): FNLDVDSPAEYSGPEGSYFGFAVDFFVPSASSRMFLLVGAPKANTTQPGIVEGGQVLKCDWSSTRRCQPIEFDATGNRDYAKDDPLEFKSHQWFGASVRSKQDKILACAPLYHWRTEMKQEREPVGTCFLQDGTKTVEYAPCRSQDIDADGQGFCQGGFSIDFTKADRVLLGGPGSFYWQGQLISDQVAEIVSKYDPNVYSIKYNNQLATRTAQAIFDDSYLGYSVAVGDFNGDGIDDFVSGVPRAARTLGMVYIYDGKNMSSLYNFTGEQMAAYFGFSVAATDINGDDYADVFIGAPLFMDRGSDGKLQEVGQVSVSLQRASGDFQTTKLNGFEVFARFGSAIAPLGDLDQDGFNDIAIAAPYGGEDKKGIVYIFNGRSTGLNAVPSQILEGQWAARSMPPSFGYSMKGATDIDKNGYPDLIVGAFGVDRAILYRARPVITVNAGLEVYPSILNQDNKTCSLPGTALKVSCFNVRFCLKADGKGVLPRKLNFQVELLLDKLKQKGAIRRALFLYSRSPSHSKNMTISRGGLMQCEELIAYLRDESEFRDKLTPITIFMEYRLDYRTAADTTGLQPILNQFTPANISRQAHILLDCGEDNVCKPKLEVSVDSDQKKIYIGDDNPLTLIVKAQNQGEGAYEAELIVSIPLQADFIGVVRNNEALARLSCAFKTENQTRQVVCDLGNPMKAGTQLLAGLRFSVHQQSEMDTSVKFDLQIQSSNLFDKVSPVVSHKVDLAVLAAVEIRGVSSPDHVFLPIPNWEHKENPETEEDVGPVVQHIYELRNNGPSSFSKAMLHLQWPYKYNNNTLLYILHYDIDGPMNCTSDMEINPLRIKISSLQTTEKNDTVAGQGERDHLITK
Chain of αvβ5 (P06756 891-1048 partner limits assumed): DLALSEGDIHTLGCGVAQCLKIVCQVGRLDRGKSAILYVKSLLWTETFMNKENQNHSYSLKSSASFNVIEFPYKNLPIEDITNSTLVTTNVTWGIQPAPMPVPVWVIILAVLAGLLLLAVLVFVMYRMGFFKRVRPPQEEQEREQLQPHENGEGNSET
Chain of αvβ5 (P18084 24-799): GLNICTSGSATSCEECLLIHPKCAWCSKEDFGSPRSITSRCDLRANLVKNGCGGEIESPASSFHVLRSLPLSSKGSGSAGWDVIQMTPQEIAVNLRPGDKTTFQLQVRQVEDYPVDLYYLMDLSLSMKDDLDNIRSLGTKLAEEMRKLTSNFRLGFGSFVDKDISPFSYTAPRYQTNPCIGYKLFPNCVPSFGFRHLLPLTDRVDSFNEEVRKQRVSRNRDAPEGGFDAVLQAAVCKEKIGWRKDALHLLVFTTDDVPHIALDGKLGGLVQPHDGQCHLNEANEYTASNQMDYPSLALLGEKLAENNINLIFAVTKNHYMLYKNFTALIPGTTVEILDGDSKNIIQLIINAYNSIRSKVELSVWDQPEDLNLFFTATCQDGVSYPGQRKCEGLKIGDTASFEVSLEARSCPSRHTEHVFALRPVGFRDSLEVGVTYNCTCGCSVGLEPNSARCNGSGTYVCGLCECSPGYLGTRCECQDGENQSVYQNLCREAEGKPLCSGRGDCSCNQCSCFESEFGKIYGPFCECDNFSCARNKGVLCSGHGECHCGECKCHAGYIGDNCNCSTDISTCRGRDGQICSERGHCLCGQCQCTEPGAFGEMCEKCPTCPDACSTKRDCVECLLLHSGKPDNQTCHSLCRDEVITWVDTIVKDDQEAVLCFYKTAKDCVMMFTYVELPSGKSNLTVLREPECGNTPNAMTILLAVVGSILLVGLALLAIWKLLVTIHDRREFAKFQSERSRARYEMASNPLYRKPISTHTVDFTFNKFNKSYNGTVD
Chain of α5β1 (P08648 42-894 limits assumed): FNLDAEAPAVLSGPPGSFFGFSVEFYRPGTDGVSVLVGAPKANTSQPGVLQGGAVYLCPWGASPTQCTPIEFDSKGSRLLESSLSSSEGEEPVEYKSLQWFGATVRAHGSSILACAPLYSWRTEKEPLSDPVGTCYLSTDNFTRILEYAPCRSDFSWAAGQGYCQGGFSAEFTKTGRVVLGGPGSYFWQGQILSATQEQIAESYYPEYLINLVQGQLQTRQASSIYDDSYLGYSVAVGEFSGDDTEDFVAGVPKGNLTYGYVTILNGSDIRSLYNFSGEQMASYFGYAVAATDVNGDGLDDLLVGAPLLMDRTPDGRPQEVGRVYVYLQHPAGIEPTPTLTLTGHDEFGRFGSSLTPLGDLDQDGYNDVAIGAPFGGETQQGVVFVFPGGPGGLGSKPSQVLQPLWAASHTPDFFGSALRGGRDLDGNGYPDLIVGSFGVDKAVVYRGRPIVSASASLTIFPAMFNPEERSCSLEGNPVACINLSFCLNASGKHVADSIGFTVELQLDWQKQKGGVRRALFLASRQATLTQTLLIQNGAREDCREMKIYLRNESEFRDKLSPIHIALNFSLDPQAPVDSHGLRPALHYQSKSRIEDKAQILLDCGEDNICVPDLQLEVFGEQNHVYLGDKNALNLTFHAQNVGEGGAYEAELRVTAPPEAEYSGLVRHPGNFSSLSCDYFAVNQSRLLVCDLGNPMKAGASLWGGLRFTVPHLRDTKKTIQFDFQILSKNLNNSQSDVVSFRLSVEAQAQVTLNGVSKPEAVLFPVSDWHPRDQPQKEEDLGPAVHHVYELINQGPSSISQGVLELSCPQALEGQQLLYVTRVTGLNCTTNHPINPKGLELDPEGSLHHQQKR
Chain of α5β1 (P08648 895-1049 partner limits assumed): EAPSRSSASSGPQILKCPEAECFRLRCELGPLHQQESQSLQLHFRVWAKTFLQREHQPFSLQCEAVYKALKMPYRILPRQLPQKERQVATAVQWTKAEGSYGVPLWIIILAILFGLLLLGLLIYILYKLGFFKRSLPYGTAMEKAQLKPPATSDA
Chain of α5β1 (P05556 21-798): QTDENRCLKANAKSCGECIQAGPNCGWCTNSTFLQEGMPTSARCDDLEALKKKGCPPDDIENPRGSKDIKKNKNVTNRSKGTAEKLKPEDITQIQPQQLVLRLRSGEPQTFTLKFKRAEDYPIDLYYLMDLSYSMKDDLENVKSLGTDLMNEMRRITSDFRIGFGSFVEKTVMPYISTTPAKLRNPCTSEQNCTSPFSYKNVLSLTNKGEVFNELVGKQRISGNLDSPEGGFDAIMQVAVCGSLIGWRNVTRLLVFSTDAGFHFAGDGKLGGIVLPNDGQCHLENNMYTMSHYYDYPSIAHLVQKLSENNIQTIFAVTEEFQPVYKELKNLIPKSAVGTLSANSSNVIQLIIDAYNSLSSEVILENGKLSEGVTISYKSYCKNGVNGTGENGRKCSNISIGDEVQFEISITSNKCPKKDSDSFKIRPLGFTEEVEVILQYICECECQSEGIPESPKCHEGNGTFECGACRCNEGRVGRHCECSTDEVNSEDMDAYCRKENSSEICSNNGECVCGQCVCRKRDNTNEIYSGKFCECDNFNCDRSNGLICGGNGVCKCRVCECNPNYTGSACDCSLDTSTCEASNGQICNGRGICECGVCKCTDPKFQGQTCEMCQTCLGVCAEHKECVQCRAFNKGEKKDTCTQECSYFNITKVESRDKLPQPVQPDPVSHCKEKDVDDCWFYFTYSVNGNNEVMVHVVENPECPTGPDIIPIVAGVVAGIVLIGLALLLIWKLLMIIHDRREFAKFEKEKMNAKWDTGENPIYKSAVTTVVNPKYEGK
T2 sequence (P02702 20-234): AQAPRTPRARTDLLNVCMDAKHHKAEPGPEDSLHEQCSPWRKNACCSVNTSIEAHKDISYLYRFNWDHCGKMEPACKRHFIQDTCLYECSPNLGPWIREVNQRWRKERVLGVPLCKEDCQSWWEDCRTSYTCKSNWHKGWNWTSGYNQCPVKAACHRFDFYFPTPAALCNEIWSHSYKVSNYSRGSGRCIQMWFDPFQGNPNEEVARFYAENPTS

Nc1nc(O)c2c(CCc3ccc(C(=O)N[C@@H](CCC(=O)O)C(=O)O)cc3)c[nH]c2n1 [pemetrexed]
affinity for FBP relative to folic acid [1]: affinity greater than folic acid

Cbz-Pro-Leu-Gly-{NHOH} [PEPTIDE A]
CONCENTRATION OF PEPTIDE (with significant inhibitory effect) [2]: >10^−5M
IC50 [3]: 40 µM

CC(C)C[C@@H](NC(=O)[C@@H]1CCCN1C(=O)CNC(=O)c1ccc(NC(=S)Nc2ccc(CCC(C(=O)O)N3CCN(CC(=O)O)CCN(CC(=O)O)CCN(CC(=O)O)CC3)cc2)cc1)C(=O)N[C@@H](C)C(=O)NO (some centres unmarked) [Example P947]
SIGNIFICANT INHIBITORY EFFECT ([2]; concentration of peptide 10^−5M): 86%
CONCENTRATION OF PEPTIDE (with significant inhibitory effect) [2]: 10^−5M
IC50 [3]: 1 µM

cyclo(ARGD-Mamb) [XJ735]
blocking of αvβ5 [4]: does not block
blocking of α5β1 [5]: does not block

Nc1nc2ncc(CNc3ccc(C(=O)N[C@@H](CCC(=O)NCCCOCCOCCOCCCNc4c(NCCOCCOCCNc5nc(Nc6ccc(CCC(C(=O)O)N7CCN(C(CCC(=O)NCC(=O)Nc8c(Br)c(C(=O)N(CC(O)C(O)C(O)C(O)CO)CC(O)C(O)C(O)C(O)CO)c(Br)c(C(=O)N(CC(O)C(O)C(O)C(O)CO)CC(O)C(O)C(O)C(O)CO)c8Br)C(=O)O)CCN(C(CCC(=O)NCC(=O)Nc8c(Br)c(C(=O)N(CC(O)C(O)C(O)C(O)CO)CC(O)C(O)C(O)C(O)CO)c(Br)c(C(=O)N(CC(O)C(O)C(O)C(O)CO)CC(O)C(O)C(O)C(O)CO)c8Br)C(=O)O)CCN(C(CCC(=O)NCC(=O)Nc8c(Br)c(C(=O)N(CC(O)C(O)C(O)C(O)CO)CC(O)C(O)C(O)C(O)CO)c(Br)c(C(=O)N(CC(O)C(O)C(O)C(O)CO)CC(O)C(O)C(O)C(O)CO)c8Br)C(=O)O)CC7)cc6)nc(Nc6ccc(CCC(C(=O)O)N7CCN(C(CCC(=O)NCC(=O)Nc8c(Br)c(C(=O)N(CC(O)C(O)C(O)C(O)CO)CC(O)C(O)C(O)C(O)CO)c(Br)c(C(=O)N(CC(O)C(O)C(O)C(O)CO)CC(O)C(O)C(O)C(O)CO)c8Br)C(=O)O)CCN(C(CCC(=O)NCC(=O)Nc8c(Br)c(C(=O)N(CC(O)C(O)C(O)C(O)CO)CC(O)C(O)C(O)C(O)CO)c(Br)c(C(=O)N(CC(O)C(O)C(O)C(O)CO)CC(O)C(O)C(O)C(O)CO)c8Br)C(=O)O)CCN(C(CCC(=O)NCC(=O)Nc8c(Br)c(C(=O)N(CC(O)C(O)C(O)C(O)CO)CC(O)C(O)C(O)C(O)CO)c(Br)c(C(=O)N(CC(O)C(O)C(O)C(O)CO)CC(O)C(O)C(O)C(O)CO)c8Br)C(=O)O)CC7)cc6)n5)c(=O)c4=O)C(=O)O)cc3)nc2c(=O)[nH]1 (some centres unmarked) [BIO-FOLATE.I]
molar r1 [6]: 53 mM⁻¹ s⁻¹
accumulation in the tumours ([7]; 15 μmol/kg): excellent accumulation
decrease of product in the tumour by folic acid ([7]; competition with free folate, times 4 and 24 h): 2 times less
injected dose found in the tumour ([7]; female, nude, mouse, in vivo, iv): 5-8%
injected theoretical dose found in the tumours ([7]; folate-free diet, at 4 h): 14%
injected theoretical dose found in the tumours ([7]; folate-free diet, at 72 h): 7%
effect of prior injection of free folic acid on tumour Gd ([7]; free folic at 25 μmol/kg before the product): decrease the Gd concentrations assayed in the tumours
activity in vivo ([7]; in vivo studies (biodistribution, MRI)): P860 is inactive in vivo unlike BIO-FOLATE.I and BIO-FOLATE.II
contrast at the level of the tumour (MRI) ([8]; between 30 minutes and 24 hours, in particular 1 to 2 hours after injection): very clear
heightening of the tumours, duration ([8]; versus products of the prior art): longer lasting than with products of the prior art
binding to FBP (folate binding protein) in vitro [9]: binds specifically to FBP
amount of product specifically bound and internalized in KB cells [10]: Correct capture

Nc1nc2ccc(NCc3ccc(C(=O)N[C@@H](CCC(=O)O)C(=O)O)cc3)cc2c(=O)[nH]1 [IAHQ]
affinity for FBP relative to folic acid [1]: affinity greater than folic acid

C#CCN(Cc1ccc2nc(N)[nH]c(=O)c2c1)c1ccc(C(=O)N[C@@H](CCC(=O)O)C(=O)O)cc1 [CB3717]
affinity for FBP relative to folic acid [1]: affinity greater than folic acid

NC1=NC2=C(S[C@H](CCc3ccc(C(=O)N[C@@H](CCC(=O)O)C(=O)O)s3)CN2)C(O)N1 (some centres unmarked)
Kd [1]: 3.2 pM

CN(Cc1ccc2nc(N)[nH]c(=O)c2c1)c1ccc(C(=O)NC(CCC(=O)O)C(=O)O)s1 (centres unmarked) [Example 2-NH2-ZD1694]
affinity for FBP relative to folic acid [1]: affinity greater than folic acid

CNC[C@H](O)[C@@H](O)[C@H](O)[C@H](O)CO.O=C([O-])CN1CCN(CC(=O)[O-])CCN(CC(=O)O)CCN(CC(=O)[O-])CC1.[Gd+3] [Dotarem]
injected theoretical dose found in the tumours ([7]; mouse, in vivo): 1-2%
intratumour amounts corrected for g of tissue ([7]; mouse, in vivo): negligable beyond 4 h
